Experimental data from ChEMBL document CHEMBL1201862, “PubChem BioAssay data set” (2004).
Activity calls are given as the source filed them.

Experiments:
Cytochrome P450 2C19 = Cytochrome P450 2C19 (Homo sapiens, UniProt P33261); experiment: Cytochrome panel assay with activity outcomes. Panel member name: p450-cyp2c19 Compounds with AC50 equal or less than 10 uM are considered active; format: functional
Cytochrome P450 1A2 = molecular target: T1, Cytochrome P450 1A2 (Homo sapiens, UniProt P05177);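 note: PubChem cytochrome P450 panel assay, CYP1A2 panel member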
T1 sequence (P05177 whole entry): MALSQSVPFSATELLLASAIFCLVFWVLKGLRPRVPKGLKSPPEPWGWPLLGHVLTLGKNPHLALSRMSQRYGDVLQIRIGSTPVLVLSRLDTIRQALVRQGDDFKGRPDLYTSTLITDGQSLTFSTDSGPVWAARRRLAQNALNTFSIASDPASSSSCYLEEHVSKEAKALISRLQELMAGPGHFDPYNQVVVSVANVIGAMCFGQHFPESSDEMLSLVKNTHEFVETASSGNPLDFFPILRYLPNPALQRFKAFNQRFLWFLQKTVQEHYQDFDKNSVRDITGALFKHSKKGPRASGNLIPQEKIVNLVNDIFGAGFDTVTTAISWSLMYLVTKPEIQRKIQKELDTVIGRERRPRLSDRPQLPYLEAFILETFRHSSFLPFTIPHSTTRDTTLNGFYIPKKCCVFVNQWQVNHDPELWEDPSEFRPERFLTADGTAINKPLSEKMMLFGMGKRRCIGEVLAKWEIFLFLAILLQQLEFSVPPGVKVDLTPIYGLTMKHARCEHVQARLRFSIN

Cytochrome P450 2C9 = Cytochrome P450 2C9 (Homo sapiens, UniProt P11712)
Cytochrome P450 2D6 = Cytochrome P450 2D6 (Homo sapiens, UniProt P10635);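 note: CYP2D6 member of a cytochrome P450 panel assay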
[1] = viability of uninfected HEp-2 cells – cell-based, HTS, cytotoxicity control for RSV inhibitor project, dose response (AID 2410); format: functional; conditions: human respiratory syncytial virus
[2] = Luminescence Cell-Based Dose Response HTS to Identify Inhibitors of 5'UTR Stem-Loop Driven Prion Protein mRNA Translation in H4 Neuroglioblastoma Cells. [Related pubchem assays: 1827 (Project Summary), 1813 (Primary HTS)]; format: functional

Cytochrome P450 2C19, sequence (P33261 whole entry): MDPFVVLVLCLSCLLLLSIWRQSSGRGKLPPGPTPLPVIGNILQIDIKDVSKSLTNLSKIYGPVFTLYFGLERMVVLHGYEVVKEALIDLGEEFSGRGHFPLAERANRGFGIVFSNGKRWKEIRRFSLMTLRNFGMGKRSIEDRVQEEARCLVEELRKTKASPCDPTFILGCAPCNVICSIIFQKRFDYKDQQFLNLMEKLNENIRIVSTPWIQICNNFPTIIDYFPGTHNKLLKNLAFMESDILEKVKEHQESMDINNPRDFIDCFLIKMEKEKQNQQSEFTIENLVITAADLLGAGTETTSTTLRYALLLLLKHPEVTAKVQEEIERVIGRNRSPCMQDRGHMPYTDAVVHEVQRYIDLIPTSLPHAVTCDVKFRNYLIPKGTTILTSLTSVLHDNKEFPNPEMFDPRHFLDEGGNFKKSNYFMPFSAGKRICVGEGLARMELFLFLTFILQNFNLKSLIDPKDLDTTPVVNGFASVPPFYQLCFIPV
Cytochrome P450 2C9, sequence (P11712 whole entry): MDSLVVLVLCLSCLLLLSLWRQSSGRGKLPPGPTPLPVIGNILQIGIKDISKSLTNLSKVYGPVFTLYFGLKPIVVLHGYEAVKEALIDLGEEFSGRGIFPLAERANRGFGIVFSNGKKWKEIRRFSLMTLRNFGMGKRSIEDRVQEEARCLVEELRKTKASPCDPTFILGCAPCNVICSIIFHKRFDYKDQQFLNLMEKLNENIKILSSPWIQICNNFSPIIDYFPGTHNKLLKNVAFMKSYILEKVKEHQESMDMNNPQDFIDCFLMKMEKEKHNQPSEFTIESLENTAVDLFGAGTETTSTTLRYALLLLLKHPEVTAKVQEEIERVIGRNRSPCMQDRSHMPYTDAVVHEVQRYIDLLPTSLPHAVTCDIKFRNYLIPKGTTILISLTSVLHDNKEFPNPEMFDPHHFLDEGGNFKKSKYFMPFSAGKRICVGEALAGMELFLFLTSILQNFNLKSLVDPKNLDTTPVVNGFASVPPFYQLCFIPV
Cytochrome P450 2D6, sequence (P10635 whole entry): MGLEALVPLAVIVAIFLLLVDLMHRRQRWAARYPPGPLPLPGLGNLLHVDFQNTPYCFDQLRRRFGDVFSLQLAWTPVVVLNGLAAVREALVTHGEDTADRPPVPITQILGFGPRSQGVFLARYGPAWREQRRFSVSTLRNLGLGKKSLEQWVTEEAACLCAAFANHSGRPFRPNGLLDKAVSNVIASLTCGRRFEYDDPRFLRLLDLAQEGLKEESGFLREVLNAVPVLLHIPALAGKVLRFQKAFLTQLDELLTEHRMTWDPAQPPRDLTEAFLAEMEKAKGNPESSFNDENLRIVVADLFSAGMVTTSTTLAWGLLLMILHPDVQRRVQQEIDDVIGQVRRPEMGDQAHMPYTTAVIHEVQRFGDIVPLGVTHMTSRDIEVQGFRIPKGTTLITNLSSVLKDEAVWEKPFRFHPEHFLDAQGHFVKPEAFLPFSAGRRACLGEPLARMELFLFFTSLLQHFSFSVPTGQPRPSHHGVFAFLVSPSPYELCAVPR

Structure (SMILES): O=C(COC(=O)COc1ccccc1)Nc1ccc(OC(F)(F)F)cc1
- AC50 (Cytochrome P450 2C19): 39.8 µM (inconclusive)

Structure (SMILES): CC/C(O)=C(\C#N)c1nnc2n1CCCCC2
- AC50 (Cytochrome P450 2C19): 1 µM (inconclusive)
- AC50 (Cytochrome P450 1A2): 14.1 µM (inconclusive)

Structure (SMILES): c1ccc(CCCNc2nnnc3ccccc23)cc1
- AC50 (Cytochrome P450 2C19): 3.16 µM (inconclusive)

Structure (SMILES): c1ccc2c(NC3CC3)nc(-c3ccoc3)nc2c1
- AC50 (Cytochrome P450 2C19): 25.1 µM (inconclusive)

Structure (SMILES): COc1ccc(NC(=O)C(F)(F)F)cc1OC
- AC50 (Cytochrome P450 2C19): 22.4 µM (inconclusive)
- AC50 (Cytochrome P450 2C9): 39.8 µM (inconclusive)

Structure (SMILES): CC1Cc2ccccc2N1C(=O)Cn1c(=O)cc(O)c2ccccc21 (stereo not given)
- AC50 (Cytochrome P450 2C19): 22.4 µM (inconclusive)
- AC50 (Cytochrome P450 2D6): 39.8 µM (inconclusive)

Structure (SMILES): CCCNC(=O)Nc1ccc2c(c1)nc(C)n2C
- AC50 (Cytochrome P450 2C19): 0.562 µM (inconclusive)
- AC50 (Cytochrome P450 1A2): 15.8 µM (inconclusive)

Structure (SMILES): c1ccc2c(c1)-c1nc3ccccc3cc1[C@H]2N1CCOCC1
- AC50 (Cytochrome P450 2C19): 3.16 µM (inconclusive)
- AC50 (Cytochrome P450 2C9): 6.31 µM (inconclusive)

Structure (SMILES): Cc1noc(C)c1C(=O)N1CCC[C@@]2(CCN(c3ccccc3)C2)C1
- AC50 (Cytochrome P450 2C19): 25.1 µM (inconclusive)
- AC50 (Cytochrome P450 1A2): 25.1 µM (inconclusive)
- AC50 (Cytochrome P450 2C9): 20 µM (inconclusive)

Structure (SMILES): CNc1ncncc1-c1ccccc1C(F)(F)F
- AC50 (Cytochrome P450 2C19): 39.8 µM (inconclusive)
- AC50 (Cytochrome P450 2D6): 39.8 µM (inconclusive)

Structure (SMILES): COc1ccc2c(C)cc(N3CCOCC3)nc2c1
- AC50 (Cytochrome P450 2C19): 31.6 µM (inconclusive)

Structure (SMILES): CCc1nn(C(C)C(=O)N2CCN(c3ccccc3)CC2)c(=O)c2cc3occc3n12 (stereo not given)
- CC50 [1]: 20.4 µM (active)

Structure (SMILES): COc1ccc([C@H]2CC(=O)C=C(c3ccc(Cl)c(C(F)(F)F)c3)C2)cc1
- CC50 [1]: 12.9 µM (active)

Structure (SMILES): Cc1ccc2nc(-c3ccc(NC(=O)COC(=O)c4ccc([N+](=O)[O-])o4)cc3)sc2c1
- EC50 [2]: 10.9 µM (inconclusive)

Structure (SMILES): CCOC(=O)C1=C(NC(=S)NC(=O)c2ccccc2)c2ccccc2CC1(C)CC (stereo not given)
- CC50 [1]: 12.5 µM (active)

Structure (SMILES): COC(=O)c1ccccc1NC(=O)c1ccc(F)cc1
- AC50 (Cytochrome P450 2C19): 25.1 µM (inconclusive)

Structure (SMILES): Cn1c(CSc2nc3cc(Br)ccc3[nH]2)nc2ccccc21
- CC50 [1]: > 50 µM (active)
